Laboratory results: PubChem BioAssay AID246 (DTP/NCI, 2004)
Values joined by “and” are separate entries in the source; they are usually repeats but may differ in a detail not shown here. Equal entries are not always repeated. Toxic doses and inconclusive results are not listed.

System: BDF1 mice, P1081 chloroleukemia ip, survival T/C
Assay: NCI In Vivo Anticancer Drug Screen. Data for tumor model P1081 Chloroleukemia (intraperitoneal) in B6D2F1 (BDF1) mice
Details: endpoint: mean survival time, higher = longer survival
Description: The antitumor activity of compounds was measured in mice bearing transplantable tumors. Survival or tumor size were measured and the results are expressed as the measurement made in the treated group (T) divided by the measurement made in the vehicle treated control group (C). The tumor model used in this assay is P1081 Chloroleukemia (intraperitoneal) in B6D2F1 (BDF1) mice

[1] = dose: 20.0 mg/kg/injection, schedule: Q01DX010 (ip), vehicle: saline
[2] = dose: 40.0 mg/kg/injection, schedule: Q01DX010 (ip), vehicle: saline
[3] = dose: 62.5 mg/kg/injection, schedule: Q01DX Z (ip), vehicle: carboxymethylcellulose (CMC)
[4] = dose: 125.0 mg/kg/injection, schedule: Q01DX Z (ip), vehicle: carboxymethylcellulose (CMC)
[5] = dose: 250.0 mg/kg/injection, schedule: Q01DX Z (ip), vehicle: carboxymethylcellulose (CMC)
[6] = dose: 500.0 mg/kg/injection, schedule: Q01DX Z (ip), vehicle: carboxymethylcellulose (CMC)
[7] = dose: 6.25 mg/kg/injection, schedule: Q01DX010 (ip), vehicle: saline
[8] = dose: 12.5 mg/kg/injection, schedule: Q01DX010 (ip), vehicle: saline
[9] = dose: 25.0 mg/kg/injection, schedule: Q01DX010 (ip), vehicle: saline
[10] = dose: 50.0 mg/kg/injection, schedule: Q01DX010 (ip), vehicle: saline
[11] = dose: 62.5 mg/kg/injection, schedule: Q01DX010 (ip), vehicle: saline
[12] = dose: 125.0 mg/kg/injection, schedule: Q01DX010 (ip), vehicle: saline
[13] = dose: 250.0 mg/kg/injection, schedule: Q01DX010 (ip), vehicle: saline
[14] = dose: 500.0 mg/kg/injection, schedule: Q01DX010 (ip), vehicle: saline
[15] = dose: 12.5 mg/kg/injection, schedule: Q01DX Z (sc), vehicle: steriod suspending solution
[16] = dose: 25.0 mg/kg/injection, schedule: Q01DX Z (sc), vehicle: steriod suspending solution
[17] = dose: 50.0 mg/kg/injection, schedule: Q01DX Z (sc), vehicle: steriod suspending solution
[18] = dose: 100.0 mg/kg/injection, schedule: Q01DX Z (sc), vehicle: steriod suspending solution

## OCC1OC(n2cnc3c(=S)nc[nH]c32)C(O)C1O (stereo not drawn)
[1]
  T/C: 110 % of control and 105 % of control
[2]
  T/C: 110 % of control and 100 % of control
[3]
  T/C: 160 % of control
dose: 80.0 mg/kg/injection, schedule: Q01DX010 (ip), vehicle: saline
  T/C: 115 % of control and 120 % of control
[4]
  T/C: 158 % of control
dose: 160.0 mg/kg/injection, schedule: Q01DX010 (ip), vehicle: saline
  T/C: 120 % of control
[5]
  T/C: 104 % of control
[6]
  T/C: 94 % of control

## O=C(Nc1ccc(C2=NCCN2)cc1)c1cccc(C(=O)Nc2ccc(C3=NCCN3)cc2)c1
dose: 2.35 mg/kg/injection, schedule: Q01DX Z (ip), vehicle: water
  T/C: 106 % of control
dose: 4.7 mg/kg/injection, schedule: Q01DX Z (ip), vehicle: water
  T/C: 96 % of control
dose: 9.4 mg/kg/injection, schedule: Q01DX Z (ip), vehicle: carboxymethylcellulose (CMC)
  T/C: 152 % of control
dose: 16.0 mg/kg/injection, schedule: Q01DX010 (ip), vehicle: saline
  T/C: 300 % of control and 333 % of control
dose: 18.8 mg/kg/injection, schedule: Q01DX Z (ip), vehicle: carboxymethylcellulose (CMC)
  T/C: 175 % of control
dose: 32.0 mg/kg/injection, schedule: Q01DX010 (ip), vehicle: saline
  T/C: 300 % of control and 333 % of control
dose: 37.5 mg/kg/injection, schedule: Q01DX Z (ip), vehicle: carboxymethylcellulose (CMC)
  T/C: 206 % of control
dose: 64.0 mg/kg/injection, schedule: Q01DX010 (ip), vehicle: saline
  T/C: 294 % of control and 300 % of control
dose: 75.0 mg/kg/injection, schedule: Q01DX Z (ip), vehicle: carboxymethylcellulose (CMC)
  T/C: 209 % of control
dose: 128.0 mg/kg/injection, schedule: Q01DX010 (ip), vehicle: saline
  T/C: 200 % of control
dose: 150.0 mg/kg/injection, schedule: Q01DX Z (ip), vehicle: water
  T/C: 100 % of control

## Nc1nc(N)c2nc(CNc3ccc(C(=O)NC(CCC(=O)O)C(=O)O)cc3)cnc2n1 (stereo not drawn)
dose: 0.05 mg/kg/injection, schedule: Q01DX010 (ip), vehicle: other
  T/C: 120 % of control
dose: 0.2 mg/kg/injection, schedule: Q01DX010 (ip), vehicle: other
  T/C: 160 % of control and 170 % of control
dose: 0.4 mg/kg/injection, schedule: Q01DX010 (ip), vehicle: other
  T/C: 90 % of control
dose: 8.0 micrograms/kg/injection, schedule: Q01DX Z (ip), vehicle: alkali diluted with saline
  T/C: 117 % of control
dose: 16.0 micrograms/kg/injection, schedule: Q01DX Z (ip), vehicle: alkali diluted with saline
  T/C: 107 % of control
dose: 31.0 micrograms/kg/injection, schedule: Q01DX Z (ip), vehicle: alkali diluted with saline
  T/C: 99 % of control

## O=[n+]1c2c(n([O-])c3ccccc31)-c1cccc3cccc-2c13
[7]
  T/C: 100 % of control
[8]
  T/C: 100 % of control
[9]
  T/C: 88 % of control and 90 % of control
[10]
  T/C: 88 % of control and 90 % of control

## Nc1c(Br)cc2c(c1Br)Cc1cc([N+](=O)[O-])ccc1-2
dose: 15.6 mg/kg/injection, schedule: Q01DX010 (ip), vehicle: saline
  T/C: 100 % of control
dose: 31.3 mg/kg/injection, schedule: Q01DX010 (ip), vehicle: saline
  T/C: 105 % of control
[11]
  T/C: 110 % of control and 100 % of control
[12]
  T/C: 100 % of control
[13]
  T/C: 100 % of control
[14]
  T/C: 95 % of control

## O=CN(O)CC(=O)O
[3]
  T/C: 99 % of control
[4]
  T/C: 109 % of control
[5]
  T/C: 110 % of control
[6]
  T/C: 101 % of control

## CS(=O)(=O)OCCCCOS(C)(=O)=O
dose: 0.78 mg/kg/injection, schedule: Q01DX Z (ip), vehicle: methylcellulose (MC)
  T/C: 89 % of control
[7]
  T/C: 110 % of control
[8]
  T/C: 86 % of control and 100 % of control
[9]
  T/C: 86 % of control and 100 % of control
dose: 25.0 mg/kg/injection, schedule: Q01DX Z (ip), vehicle: methylcellulose (MC)
  T/C: 95 % of control
[10]
  T/C: 90 % of control and 100 % of control
dose: 50.0 mg/kg/injection, schedule: Q01DX Z (ip), vehicle: methylcellulose (MC)
  T/C: 92 % of control

## CC(=O)N(C)C
[11]
  T/C: 100 % of control
[12]
  T/C: 90 % of control and 95 % of control
[13]
  T/C: 90 % of control and 95 % of control
[14]
  T/C: 90 % of control and 95 % of control

## C[C@@H]1C[C@@H]([C@H](O)CC2CC(=O)NC(=O)C2)C(=O)[C@@H](C)C1
dose: 0.39 mg/kg/injection, schedule: Q01DX Z (ip), vehicle: water
  T/C: 89 % of control
dose: 3.12 mg/kg/injection, schedule: Q01DX Z (ip), vehicle: water
  T/C: 102 % of control
dose: 5.0 mg/kg/injection, schedule: Q01DX010 (ip), vehicle: saline
  T/C: 86 % of control and 100 % of control
dose: 10.0 mg/kg/injection, schedule: Q01DX010 (ip), vehicle: saline
  T/C: 110 % of control and 100 % of control
[1]
  T/C: 115 % of control and 100 % of control
dose: 25.0 mg/kg/injection, schedule: Q01DX Z (ip), vehicle: water
  T/C: 93 % of control
[2]
  T/C: 90 % of control

## CN(Cc1cnc2nc(N)nc(N)c2n1)c1c(Cl)cc(C(=O)NC(CCC(=O)O)C(=O)O)cc1Cl (stereo not drawn)
dose: 12.5 mg/kg/injection, schedule: Q01DX Z (ip), vehicle: carboxymethylcellulose (CMC)
  T/C: 101 % of control
dose: 25.0 mg/kg/injection, schedule: Q01DX Z (ip), vehicle: carboxymethylcellulose (CMC)
  T/C: 102 % of control

## Clc1ccc(C(c2ccccc2Cl)C(Cl)Cl)cc1 (stereo not drawn)
dose: 0.8 mg/kg/injection, schedule: Q01DX Z (sc), vehicle: steriod suspending solution
  T/C: 110 % of control
dose: 3.1 mg/kg/injection, schedule: Q01DX Z (sc), vehicle: steriod suspending solution
  T/C: 117 % of control
dose: 6.25 mg/kg/injection, schedule: Q01DX Z (sc), vehicle: steriod suspending solution
  T/C: 101 % of control
[15]
  T/C: 100 % of control
[16]
  T/C: 93 % of control and 95 % of control
[17]
  T/C: 93 % of control
[18]
  T/C: 87 % of control

## COc1cc2c(c(OC)c1OC)-c1ccc(N)c(=O)cc1[C@@H](NC(C)=O)CC2
dose: 0.5 mg/kg/injection, schedule: Q01DX010 (ip), vehicle: saline
  T/C: 177 % of control
dose: 1.0 mg/kg/injection, schedule: Q01DX010 (ip), vehicle: saline
  T/C: 188 % of control and 250 % of control
dose: 2.0 mg/kg/injection, schedule: Q01DX010 (ip), vehicle: saline
  T/C: 100 % of control

## c1ccc(CCSc2ncnc3nc[nH]c23)cc1
[11]
  T/C: 120 % of control
[12]
  T/C: 120 % of control

## O=c1[nH]c(=O)n(C2CC(O)C(CO)O2)cc1I (stereo not drawn)
[3]
  T/C: 103 % of control
[4]
  T/C: 108 % of control
[5]
  T/C: 118 % of control and 92 % of control
[6]
  T/C: 114 % of control

## CCOC(=O)NP(=O)(N1CC1(C)C)N1CC1(C)C (stereo not drawn)
dose: 8.0 mg/kg/injection, schedule: Q01DX Z (ip), vehicle: carboxymethylcellulose (CMC)
  T/C: 109 % of control
dose: 16.0 mg/kg/injection, schedule: Q01DX Z (ip), vehicle: carboxymethylcellulose (CMC)
  T/C: 106 % of control and 99 % of control
[3]
  T/C: 87 % of control and 104 % of control
dose: 63.0 mg/kg/injection, schedule: Q01DX Z (ip), vehicle: carboxymethylcellulose (CMC)
  T/C: 169 % of control

## CC/C(=C(/CC)c1ccc(O)cc1)c1ccc(O)cc1
[8]
  T/C: 100 % of control
dose: 16.0 mg/kg/injection, schedule: Q01DX Z (sc), vehicle: steriod suspending solution
  T/C: 95 % of control
[9]
  T/C: 100 % of control and 105 % of control
[10]
  T/C: 100 % of control and 105 % of control
dose: 125.0 mg/kg/injection, schedule: Q01DX Z (sc), vehicle: steriod suspending solution
  T/C: 88 % of control

## Clc1ncnc2nc[nH]c12
dose: 7.5 mg/kg/injection, schedule: Q01DX010 (ip), vehicle: saline
  T/C: 110 % of control and 90 % of control
dose: 15.0 mg/kg/injection, schedule: Q01DX010 (ip), vehicle: saline
  T/C: 90 % of control and 100 % of control
dose: 30.0 mg/kg/injection, schedule: Q01DX010 (ip), vehicle: saline
  T/C: 110 % of control and 95 % of control
dose: 31.25 mg/kg/injection, schedule: Q01DX Z (ip), vehicle: carboxymethylcellulose (CMC)
  T/C: 98 % of control
dose: 60.0 mg/kg/injection, schedule: Q01DX010 (ip), vehicle: saline
  T/C: 110 % of control and 104 % of control
[3]
  T/C: 107 % of control and 105 % of control
[4]
  T/C: 114 % of control and 121 % of control
[5]
  T/C: 86 % of control and 94 % of control

## CC(=O)[C@H]1CC[C@H]2[C@@H]3C[C@H](C)C4=CC(=O)CC[C@]4(C)[C@H]3C(=O)C[C@]12C
dose: 6.3 mg/kg/injection, schedule: Q01DX Z (sc), vehicle: steriod suspending solution
  T/C: 121 % of control
[15]
  T/C: 110 % of control
[16]
  T/C: 110 % of control
[17]
  T/C: 101 % of control
[18]
  T/C: 98 % of control
dose: 200.0 mg/kg/injection, schedule: Q01DX Z (sc), vehicle: steriod suspending solution
  T/C: 105 % of control and 94 % of control
